# Test system: Breast cancer cells
# Assay: Drug test: intranuclear delivery of doxorubicin by nuclear yellow-reddish fluorescence (fluorescence microscopy)
# Assay type: cell-based
# Procedure: In this Example, the anticancer drug doxorubicin was employed. Doxorubicin works to induce cell death by intercalating DNA. It emits yellow-reddish fluorescence at near 600 nm. When the conjugates penetrate into cancer cells, doxorubicin is dissociated from the gold nanoparticles by hydrolysis under an acidic condition and translocates into the nucleus which thus emits yellow-reddish fluorescence.
# Breast cancer cells in test groups were incubated with the pH-sensitive gold nanoparticle-doxorubicin conjugates to induce the internalization of the conjugate (middle panel, FIG. 6).
# For comparison, cells were incubated with doxorubicin-free pH-sensitive gold nanoparticles (left panel, FIG. 6) and with doxorubicin alone (right panel, FIG. 6) under the same condition.
# The intranuclear delivery of doxorubicin can be qualitatively analyzed in terms of nuclear yellow-reddish fluorescence as measured by fluorescence microscopy.
structure (smiles),measurement,setting,value
COc1cccc2c1C(=O)c1c(O)c3c(c(O)c1C2=O)C[C@@](O)(C(=O)CO)C[C@@H]3O[C@H]1C[C@H](N)[C@H](O)[C@H](C)O1 [doxorubicin],nuclear fluorescence of doxorubicin,3 hours of incubation,the fluorescence was intensified
same,nuclear fluorescence of doxorubicin,one hour of incubation,started to exhibit fluorescence

# From patent US20130331764A9, “ANTICANCER AGENT DELIVERY SYSTEM USING pH-SENSITIVE METAL NANOPARTICLES” (priority 2010, published 2013)
